This passage reports Kd, EC50 and IC50 results from patent publication US11242351B2, “Tricyclic inhibitors of the BCL6 BTB domain protein-protein interaction and uses thereof” (priority 2017, dated 2022).

Where two headings read alike, the source gives them in different places.

Experiment [1] concerns the target BCL6 BTB domain (biotin-thrombin-BCL6 amino acids 1-129) (Homo sapiens (Human), UniProt P41182). Kind of experiment: Surface Plasmon Resonance (SPR) assay. Format: binding. Particulars: Biacore T200, single cycle kinetic analysis. The procedure:
Surface Plasmon Resonance (SPR) Assay
SPR studies were performed using a Biacore™ T200 instrument (GE Health Sciences Inc.). […] The Biacore flow rate was set at 100 μl/min. […] Curve fitting and KD calculations were performed with the Biacore T200 Evaluation software (GE Health Sciences Inc).
Background: In SPR one partner is held on a chip, and binding of the other changes the refractive index at the surface.

The subject of another experiment is Karpas422 cells. Put plainly: Tumor cell growth inhibition assay. Format: cell-based. Particulars: Homo sapiens, KARPAS-422, 144 h, read-out: GI Karpas EC50. The procedure: Tumor Cell Growth Inhibition Assay:
Karpas422 cells were seeded into a 96-well plate at 2,000 cells/well in 150 μl medium (Alpha-MEM containing 10% FBS, […] Normocin, and […] Gentamycin, Invitrogen). A HP D300 digital dispenser was used to dose cells with DMSO or test compounds across a 10-point range of concentrations (high dose of 5 μM), and cultures were grown in a humidified 5% CO2 incubator at 37° C. After six days, plates were removed from incubator and equilibrated to room temperature. An equal volume of ATPlite assay reagent was added to each well, and samples were processed according to the manufacturer's instructions (Perkin Elmer). The luminescent signal was measured using an Envision plate reader equipped with a US-Luminescence detector.

The test system of experiment [2] is BCL6 reporter construct in SuDHL4-3×BCL6-TK-Luc cells. Kind of experiment: Cell-based luciferase assay (BCL6 reporter). Particulars: 48 h, read-out: Luc IC50. The procedure: Cell-Based Luciferase Assay:
A BCL6 reporter construct containing three copies of the consensus BCL6 binding site, the TK promoter, and the firefly luciferase gene was stably expressed in SuDHL4 cells after lentivirus infection and selection with Blasticidin. SuDHL4-3×BCL6-TK-Luc cells were seeded into a Viewplate 384-well assay dish at 15,000 cells/well in […] (Alpha-MEM high glucose containing 10% FBS, 25 mM HEPES, […] GlutaMAX, 100 µg/mL Normocin, and […] Gentamycin, Invitrogen). A HP D300 digital dispenser was used to dose cells with DMSO or test compounds across a 10-point range of concentrations (high dose of 10 μM), and cultures were grown in a humidified 5% CO2 incubator at 37° C. After two days, plates were removed from the incubator and equilibrated to room temperature. An equal volume of neolite reporter gene assay reagent was added to each well, and samples were processed according to the manufacturer's instructions (Perkin Elmer). The luminescent signal was measured using an Envision plate reader equipped with a US-Luminescence detector.

[3] abbreviates: Karpas422 cells, six days, ATPlite.
Setting [4] is: SuDHL4-3×BCL6-TK-Luc cells, two days.

For orientation: Kd means the constant that tells how readily two partners part at equilibrium. Read a low Kd as a tighter complex. What is called EC50 is the midpoint of the concentration-response curve. Usually IC50 stands for the midpoint of a concentration-inhibition curve.

`COc1c(O)c(C(N)=O)cc(-c2cn(CC(=O)Nc3cc(N4CCOC[C@@H]4C)ncc3Cl)c3nc4n(c(=O)c23)CCC4)c1F` [I-18, (S)-5-(1-(2-((5-chloro-2-(3-methylmorpholino)pyridin-4-yl)amino)-2-oxoethyl)-4-oxo-4,6,7,8-tetrahydro-1H-dipyrrolo[1,2-a:2′,3′-d]pyrimidin-3-yl)-4-fluoro-2-hydroxy-3-methoxybenzamide] registered a Kd in experiment [1] of 34.3 nM. Also, the EC50 in the experiment with Karpas422 cells amounted to 688 nM. For the same molecule, the IC50 in experiment [2] was found to be 818 nM.

`COc1c(O)c(C(N)=O)cc(-c2cn(CC(=O)Nc3cc(N4CCN(C5COC5)C[C@@H]4C)ncc3Cl)c3nc4n(c(=O)c23)CCC4)c1F` [I-19, (S)-5-(1-(2-((5-chloro-2-(2-methyl-4-(oxetan-3-yl)piperazin-1-yl)pyridin-4-yl)amino)-2-oxoethyl)-4-oxo-4,6,7,8-tetrahydro-1H-dipyrrolo[1,2-a:2′,3′-d]pyrimidin-3-yl)-4-fluoro-2-hydroxy-3-methoxybenzamide]: the Kd in experiment [1] was found to be 26.6 nM. Also, the EC50 in the experiment with Karpas422 cells (setting [3]) is 513 nM. Further, in experiment [2] (setting [4]), the IC50 came to 501 nM.

Turning to `C[C@H]1CN(C2COC2)CCN1c1cc(NC(=O)Cn2cc(-c3cc(C(N)=O)c(O)c(F)c3F)c3c(=O)n4c(nc32)CCC4)c(Cl)c(F)n1` [I-20, (S)-5-(1-(2-((3-chloro-2-fluoro-6-(2-methyl-4-(oxetan-3-yl)piperazin-1-yl)pyridin-4-yl)amino)-2-oxoethyl)-4-oxo-4,6,7,8-tetrahydro-1H-dipyrrolo[1,2-a:2′,3′-d]pyrimidin-3-yl)-3,4-difluoro-2-hydroxy-benzamide], in experiment [1], the Kd was determined as 3.96 nM. For the same molecule, in the experiment with Karpas422 cells (setting [3]), the EC50 is 57.6 nM. Further, in experiment [2] (setting [4]), the IC50 came to 61.2 nM.

The molecule `CC1CN(C)CC(C)N1c1cc(NC(=O)Cn2cc(-c3cc(C(N)=O)c(O)c(F)c3F)c3c(=O)n4c(nc32)CCC4)c(Cl)cn1` (stereo not drawn) [I-21, 5-(1-(2-((5-chloro-2-(2,4,6-trimethyl-piperazin-1-yl)pyridin-4-yl)amino)-2-oxoethyl)-4-oxo-4,6,7,8-tetrahydro-1H-dipyrrolo[1,2-a:2′,3′-d]pyrimidin-3-yl)-3,4-difluoro-2-hydroxy-benzamide] gave a Kd in experiment [1] of 25.6 nM. The half-maximal effective concentration (EC50) in the experiment with Karpas422 cells came out at 329 nM. Also, the IC50 in experiment [2] was found to be 355 nM.

In experiment [1], `CN(C)c1cc(NC(=O)Cn2cc(-c3cc(C(N)=O)c(O)c(F)c3F)c3c(=O)n4c(nc32)CCC4)c(Cl)c(F)n1` [I-22, 5-(1-(2-((3-chloro-6-(dimethylamino)-2-fluoropyridin-4-yl)amino)-2-oxoethyl)-4-oxo-4,6,7,8-tetrahydro-1H-dipyrrolo [1,2-a:2′,3′-d]pyrimidin-3-yl)-3,4-difluoro-2-hydroxybenzamide] gave a Kd of 11.8 nM. For the same molecule, the EC50 in the experiment with Karpas422 cells (setting [3]) is 146 nM. Besides, the IC50 in experiment [2] (setting [4]) was 274 nM.

The molecule `CCN1CCN(c2cc(NC(=O)Cn3cc(-c4cc(C(N)=O)c(O)c(F)c4F)c4c(=O)n5c(nc43)CCC5)c(Cl)c(F)n2)[C@@H](C)C1` [I-23, (S)-5-(1-(2-((3-chloro-6-(4-ethyl-2-methyl-piperazin-1-yl)-2-fluoro-pyridin-4-yl)amino)-2-oxoethyl)-4-oxo-4,6,7,8-tetrahydro-1H-dipyrrolo [1,2-a:2′,3′-d]pyrimidin-3-yl)-3,4-difluoro-2-hydroxybenzamide] had a Kd in experiment [1] of 7.97 nM. Moreover, in the experiment on Karpas422 cells (setting [3]), the EC50 was found to be 102 nM. The IC50 in experiment [2] (setting [4]) worked out at 91.5 nM.

Turning to `C[C@H]1CN(CC2CC2)CCN1c1cc(NC(=O)Cn2cc(-c3cc(C(N)=O)c(O)c(F)c3F)c3c(=O)n4c(nc32)CCC4)c(Cl)c(F)n1` [I-24, (S)-5-(1-(2-((3-chloro-6-(4-(cyclopropylmethyl)-2-methylpiperazin-1-yl)-2-fluoropyridin-4-yl)amino)-2-oxoethyl)-4-oxo-4,6,7,8-tetrahydro-1H-dipyrrolo[1,2-a:2′,3′-d]pyrimidin-3-yl)-3,4-difluoro-2-hydroxy-benzamide], in experiment [1], binding was put at a Kd of 12.3 nM. In addition, the EC50 in the experiment with Karpas422 cells (setting [3]) turned out to be 134 nM. Besides, the IC50 in experiment [2] (setting [4]) was determined as 152 nM.

As for `COCCN1CCN(c2cc(NC(=O)Cn3cc(-c4cc(C(N)=O)c(O)c(F)c4F)c4c(=O)n5c(nc43)CCC5)c(Cl)c(F)n2)[C@@H](C)C1` [I-25, (S)-5-(1-(2-((3-chloro-2-fluoro-6-(4-(2-methoxyethyl)-2-methyl-piperazin-1-yl)pyridin-4-yl)amino)-2-oxoethyl)-4-oxo-4,6,7,8-tetrahydro-1H-dipyrrolo[1,2-a:2′,3′-d]pyrimidin-3-yl)-3,4-difluoro-2-hydroxy-benzamide], in experiment [1], the Kd came out at 5.64 nM. In the experiment with Karpas422 cells (setting [3]), the EC50 is 75.1 nM. Besides, the IC50 in experiment [2] (setting [4]) is 78.7 nM.

Molecule `C[C@H]1CN(C2COC2)CCN1c1cc(NC(=O)Cn2cc(-c3cc(C(N)=O)c(O)c(Cl)c3F)c3c(=O)n4c(nc32)CCC4)c(Cl)c(F)n1` [I-26, (S)-3-chloro-5-(1-(2-((3-chloro-2-fluoro-6-(2-methyl-4-(oxetan-3-yl)piperazin-1-yl)pyridin-4-yl)amino)-2-oxoethyl)-4-oxo-4,6,7,8-tetrahydro-1H-dipyrrolo[1,2-a:2′,3′-d]pyrimidin-3-yl)-4-fluoro-2-hydroxy-benzamide] displayed a Kd in experiment [1] of 30.2 nM. Moreover, in the experiment with Karpas422 cells (setting [3]), the EC50 stood at 549 nM. Besides, the IC50 in experiment [2] (setting [4]) came out at 585 nM.

With `CN(C)c1cc(NC(=O)Cn2cc(-c3cc(C(N)=O)c(O)c(Cl)c3F)c3c(=O)n4c(nc32)CCC4)c(Cl)c(F)n1` [I-27, 3-chloro-5-(1-(2-((3-chloro-6-(dimethyl-amino)-2-fluoro-pyridin-4-yl)amino)-2-oxoethyl)-4-oxo-4,6,7,8-tetrahydro-1H-dipyrrolo[1,2-a:2′,3′-d]pyrimidin-3-yl)-4-fluoro-2-hydroxy-benzamide], the Kd in experiment [1] stood at 190 nM. In the experiment with Karpas422 cells, the EC50 is 1630 nM. In addition, the IC50 in experiment [2] was determined as 1140 nM.

The molecule `CCN1CCN(c2cc(NC(=O)Cn3cc(-c4cc(C(N)=O)c(O)c(Cl)c4F)c4c(=O)n5c(nc43)CCC5)c(Cl)c(F)n2)[C@@H](C)C1` [I-28, (S)-3-chloro-5-(1-(2-((3-chloro-6-(4-ethyl-2-methylpiperazin-1-yl)-2-fluoropyridin-4-yl)amino)-2-oxoethyl)-4-oxo-4,6,7,8-tetra-hydro-1H-dipyrrolo [1,2-a:2′,3′-d]pyri-midin-3-yl)-4-fluoro-2-hydroxybenzamide] came in with a dissociation constant (Kd) in experiment [1] of 135 nM. In addition, the EC50 in the experiment with Karpas422 cells (setting [3]) turned out to be 779 nM. Moreover, the IC50 in experiment [2] (setting [4]) was found to be 1340 nM.

`C[C@H]1CN(CC2CC2)CCN1c1cc(NC(=O)Cn2cc(-c3cc(C(N)=O)c(O)c(Cl)c3F)c3c(=O)n4c(nc32)CCC4)c(Cl)c(F)n1` [I-29, (S)-3-chloro-5-(1-(2-((3-chloro-6-(4-(cyclopropylmethyl)-2-methylpiperazin-1-yl)-2-fluoropyridin-4-yl)amino)-2-oxoethyl)-4-oxo-4,6,7,8-tetra-hydro-1H-dipyrrolo [1,2-a:2′,3′-d]pyrimi-din-3-yl)-4-fluoro-2-hydroxybenzamide]: the Kd in experiment [1] is 240 nM. The EC50 with Karpas422 cells is 2590 nM. Further, the IC50 in experiment [2] came to 2150 nM.

For `NC(=O)c1cc(-c2cn(CC(=O)Nc3cc(N4CCOCC4)c(F)cc3Cl)c3nc4n(c(=O)c23)CCC4)c(F)c(F)c1O` [I-30, 5-(1-(2-((2-chloro-4-fluoro-5-morpholino-phenyl)amino)-2-oxo-ethyl)-4-oxo-4,6,7,8-tetrahydro-1H-dipyrrolo [1,2-a:2′,3′-d]pyrimidin-3-yl)-3,4-difluoro-2-hydroxybenzamide], the dissociation constant Kd in experiment [1] amounted to 106 nM. Moreover, in the experiment with Karpas422 cells, the EC50 stood at 980 nM. For the same molecule, the IC50 in experiment [2] turned out to be 1110 nM.

Turning to `NC(=O)c1cc(-c2cn(CC(=O)Nc3cc(N4CCOCC4)ccc3Cl)c3nc4n(c(=O)c23)CCC4)c(F)c(F)c1O` [I-31, 5-(1-(2-((2-chloro-5-morpholinophenyl)amino)-2-oxoethyl)-4-oxo-4,6,7,8-tetrahydro-1H-dipyrrolo[1,2-a:2′,3′-d]pyrimidin-3-yl)-3,4-difluoro-2-hydroxy-benzamide], binding in experiment [1] was characterised by a dissociation constant (Kd) of 141 nM. Besides, in the experiment on Karpas422 cells, the EC50 worked out at 2690 nM. For the same molecule, in experiment [2], the IC50 is 6300 nM.

For the molecule `CN1CCN(c2ccc(Cl)c(NC(=O)Cn3cc(-c4cc(C(N)=O)c(O)c(F)c4F)c4c(=O)n5c(nc43)CCC5)c2)CC1` [I-32, 5-(1-(2-((2-chloro-5-(4-methylpiperazin-1-yl)phenyl)amino)-2-oxo-ethyl)-4-oxo-4,6,7,8-tetrahydro-1H-dipyrrolo [1,2-a:2′,3′-d]pyrimidin-3-yl)-3,4-difluoro-2-hydroxybenzamide], in experiment [1], the affinity, expressed as Kd, was 261 nM. The EC50 in the experiment on Karpas422 cells (setting [3]) was found to be 1340 nM. In addition, in experiment [2] (setting [4]), the IC50 was found to be 3580 nM.
